Read-outs that look alike come from different tables or passages of the source.
Experiments:
[1] = target: T1, baculovirus expressed hAR protein (Homo sapiens, UniProt P10275); test: Receptor binding assay ([3H]-dihydrotestosterone displacement)
T1 construct: made in house; host or cells: Sf-21 insect cells (baculovirus)
T1 sequence (P10275 1-920): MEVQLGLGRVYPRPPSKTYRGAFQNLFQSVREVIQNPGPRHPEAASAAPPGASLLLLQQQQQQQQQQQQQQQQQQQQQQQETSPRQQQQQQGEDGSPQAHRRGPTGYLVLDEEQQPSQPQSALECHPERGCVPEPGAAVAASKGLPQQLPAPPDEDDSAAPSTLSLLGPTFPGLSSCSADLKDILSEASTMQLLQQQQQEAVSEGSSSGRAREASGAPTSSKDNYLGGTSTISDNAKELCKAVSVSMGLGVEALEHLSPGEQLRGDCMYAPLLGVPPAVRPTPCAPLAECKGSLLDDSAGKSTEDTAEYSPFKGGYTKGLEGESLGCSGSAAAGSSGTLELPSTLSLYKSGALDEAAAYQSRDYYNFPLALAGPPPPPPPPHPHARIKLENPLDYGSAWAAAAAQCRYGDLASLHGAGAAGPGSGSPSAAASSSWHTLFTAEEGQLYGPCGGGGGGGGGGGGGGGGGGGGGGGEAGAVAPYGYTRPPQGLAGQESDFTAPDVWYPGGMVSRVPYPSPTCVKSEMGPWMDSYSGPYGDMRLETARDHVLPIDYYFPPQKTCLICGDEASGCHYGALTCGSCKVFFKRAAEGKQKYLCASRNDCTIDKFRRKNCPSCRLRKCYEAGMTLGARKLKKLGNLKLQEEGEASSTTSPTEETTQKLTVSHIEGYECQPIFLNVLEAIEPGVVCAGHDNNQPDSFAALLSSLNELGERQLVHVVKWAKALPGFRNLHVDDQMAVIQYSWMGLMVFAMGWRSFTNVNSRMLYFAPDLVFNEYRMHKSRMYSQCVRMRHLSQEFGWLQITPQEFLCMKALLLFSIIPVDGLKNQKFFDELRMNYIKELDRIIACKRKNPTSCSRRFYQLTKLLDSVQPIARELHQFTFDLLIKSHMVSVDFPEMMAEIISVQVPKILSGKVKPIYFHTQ

[2] = target: endogenous human androgen receptor (hAR) (Homo sapiens, UniProt P10275); test: Activation of hAR-responsive luciferase reporter in MDA-MB-453 cells; assay type: cell-based
Method: A functional assay was conducted to determine the ability of test substances to modulate gene expression via endogenous human androgen receptor (hAR) in a human cell line. A luciferase reporter assay was utilized to establish the ability of test compounds to activate hAR-regulated gene expression in a human cell line containing endogenously expressed hAR (MDAMB-453 cells) transfected with an androgen-responsive luciferase reporter plasmid containing the cDNA for firefly luciferase. MDA-MB-453 cells were transfected with a plasmid containing the cDNA for firefly luciferase (LUC) under the control of a conditional promoter containing hormone response elements recognized by AR (MMTV-LUC) and a P-galactosidase expression plasmid (pRS-(3-Gal) for normalization of transfection efficiency. The reporter plasmid MMTVLUC contains the mouse Mammary Tumor Virus (MMTV) Long Terminal Repeat (LTR) conditional promoter containing hormone response elements recognized by hAR. The luciferase response was calculated as: Luciferase response/β-gal rate where
Luciferase response=Relative Luciferase Units (RLU) and
β-gal rate=β-gal 0.D.415/β-Gal incubation time in minutes.
The mean of the normalized response at each concentration of compound was calculated. The effective concentration that produced 50% of the maximum response (EC50) was determined for each compound by interpolation between two concentrations spanning the midpoint of the concentration-response curve. Agonist efficacy for test compounds was calculated as a percent of normalized response relative to the maximum normalized response by the reference agonist DHT.

[3] = tested on: TNFα-IL-1β-induced IL-6 promoter activity; test: IL-6 promoter repression assay (Saos-2 human osteoblast cells transfected with human AR); assay type: cell-based; conditions: for IC50: Homo sapiens, read-out: average IC50, suppression of TNFα-IL-1β-induced IL-6 promoter activity
Text: An exemplary cotransfection assay for measuring AR-mediated effects on bone measures the modulation of IL-6 promoter activity. IL-6 is an important bone resorption factor (Jilka et al, Science 257: 88-91 (1992); Bellido et al., J Clin Invest 95: 2886-2895 (1995)). Overexpression of IL-6 can cause severe bone loss in vivo. […] It has been reported that androgens regulate IL-6 mRNA by suppressing NFKB binding to its response element (Keller et al., J Biol Chem 271: 26267-26275 (1996)). Thus, the AR-mediated modulation of IL-6 promoter activity provides an excellent marker for studying androgen action in bone. The assay is a cotransfection assay that measures the ability of compound to repress gene expression via the human androgen receptor from the IL-6 promoter using a luciferase reporter assay in human osteoblast cells.
A human osteoblast cell line (Saos-2, available from American Type Cell Culture (ATCC, Rockville, Md.)) can be used in the luciferase reporter assay. An IL-6-LUC reporter plasmid can be constructed by inserting the IL-6 promoter sequence into a luciferase reporter vector (e.g., by cloning the human IL-6 promoter region from −232 to +17 bp from human liver genomic DNA (Clontech, Palo Alti, Calif.) and inserting the sequence into a pGL2-enhancer reporter plasmid (Promega, Madison, Wis.)). The Saos-2 cell line can be transiently transfected with a human AR expression plasmid and a luciferase reporter plasmid containing the IL-6 promoter upstream of the luciferase cDNA. The compounds to be tested are added to the cells after transfection and after 24 hours of incubation, the cells are lysed with a detergent-containing buffer and assayed for luciferase activity. The EC50 is determined from the concentration response curve for the compound, and the inhibitory effect on TNFα/IL-1β induction (% inhibition) can be calculated according to the equation: […]
IL-6 is an important bone resorption factor. Over-expression of IL-6 can cause severe bone loss in vivo. Reducing IL-6 production by bone cells would be therapeutically beneficial by reducing bone resorption. Compound 102 and the androgen receptor modulators LG0893410 and LG0893411 were tested to determine their ability to suppress TNFα-IL-1β-induced IL-6 promoter activity in Saos-2 human osteoblast cells using a cotransfection assay. A human osteoblast cell line (Saos-2) was transiently transfected with a human AR expression plasmid and a luciferase reporter plasmid containing the IL-6 promoter upstream of the luciferase cDNA. Saos-2 cells were seeded at 6000 cells/well in 96-well plates. The same day, a non-liposomal formulation, FuGENE 6 reagent (Roche, Indianapolis, Ind.) was used for transfection of the cells. To each well was added […] of the IL-6-LUC reporter plasmid and 0.7 μg of pCMV-hAR. Twenty-four hours after transfection, different concentrations of the solvated compound (10^−11 to 10^−6 M) in DMEM (Dulbecco's Minimal Essential Media) were added in triplicate to the cells and the cells were incubated for 24 hours. The expression of luciferase was stimulated by the cytokines Tumor Necrosis Factor α (TNFα, 10 ng/mL) and Interleukin-1 beta (IL-1β, 1 ng/mL). The medium was aspirated and the cells were lysed with a detergent-containing buffer. After addition of Luciferase Assay Buffer to each well, the cells were assayed for luciferase activity using a luminometer to determine the level of transcriptional activation.

[4] = MDA-MB-453 cells, MMTV-LUC; read-out: EC50, activating hAR-responsive luciferase reporter

Compound	Ki [1]	EC50 [2, 4]	IC50 ([3]; Saos-2 cells)	more potent than LG0893410 and LG0893411 in activating hAR-responsive luciferase reporter ([2]; ratio of EC50)	EC50 ([2]; read-out: EC50, activating hAR-responsive luciferase reporter; MDA-MB-453 cells, MMTV-LUC)	efficacy, % of DHT ([3]; Saos-2 cells)	more potent than LG0893410 and LG0893411 in suppressing IL-6 promoter activity ([3]; ratio of IC50)
O=[N+]([O-])c1ccc(N2CCC[C@@H]2[C@H](O)C(F)(F)F)cc1C(F)(F)F [LG0893411, S, R-2,2,2-trifluoro-1-[1-(4-nitro-3-trifluoromethyl-phenyl)-pyrrolidin-2-yl]-ethanol]	5.7 nM	35 nM	1.5 nM				
N#Cc1ccc(N2CCC[C@@H]2[C@@H](O)C(F)(F)F)cc1C(F)(F)F [Compound 102, R,R-4-(2-(1-Hydroxyl-2,2,2-trifluoroethyl)-pyrrolidinyl)-2-trifluoromethyl-benzonitrile]	0.9 nM		0.41 nM	8.5 to 12.5 times	2.8 nM	97%	3-4 fold
O=[N+]([O-])c1ccc(N2CCC[C@@H]2[C@@H](O)C(F)(F)F)cc1C(F)(F)F [LG0893410, R,R-2,2,2-trifluoro-1-[1-(4-nitro-3-trifluoromethyl-phenyl)-pyrrolidin-2-yl]-ethanol]	2.5 nM	24.2 nM	1.2 nM				

— patent US11358931B2, “Selective androgen receptor modulators (SARMs) and uses thereof” (priority 2007, dated 2022)
